Measured values reported in PubChem BioAssay AID1508612.

Assay: passive permeability, PAMPA, ADME assay (AID 1508612)
Details: pH 7.4, 30.0 min, 50.0 µM

| Structure (SMILES) | Papp [×10⁻⁶ cm/s] |
| --- | --- |
| CCCCOC(=O)c1ccnc2cc(C(OCCN3CCCCC3)c3ccccc3Cl)sc12 (configuration not stated) | 828 |
| c1ccc(CNc2nc(NCc3ccccc3)c3ccccc3n2)cc1 | 253 |
| CCc1ccccc1Nc1ncnc2c1cnn2-c1ccc(Cl)cc1 | 253 |
| O=C(C1CCN(c2nc(-c3ccc(Br)cc3)cs2)CC1)N1CCNCC1 | 484 |
| Fc1ccc(Nc2nc(-n3ccnc3)nc3ccccc23)cc1F | 223 |
| Cc1nc(NCc2ccco2)nc2c1C(=O)CC(C)C2 (configuration not stated) | > 1000 |
| Oc1ccc(CNc2ccc(C(F)(F)F)cc2F)c2cccnc12 | 150 |
| O=c1[nH]cnc2c1ccn2C1OC(CO)C(O)C1O (configuration not stated) | 3.01 |
| O=C(Cc1ccc(Cl)c(Cl)c1)Nc1ccc(S(=O)(=O)Nc2nncs2)cc1 | 1.5 |
| COc1cc2c(cc1OC)C(C[C@H]1CN(S(=O)(=O)c3cccc(C#N)c3)CC[C@H]1CC(=O)O)=NCC2 | 3.25 |
| Cc1ccc(S(=O)(=O)Nc2cnccc2C(=O)Nc2nc(C(=O)O)cs2)cc1 | < 1 |
| C[C@H]1CN(C(=O)Nc2ccc(F)cc2F)C[C@@H]1c1nc(-c2ccccc2)no1 | > 1000 |
| Cc1ccc(S(=O)(=O)NCc2ccccc2)cc1 | 537 |
| Cc1csc2c1c(=O)n(O)c(=O)n2Cc1ccccc1 | 116 |
| Cc1ccc(S(=O)(=O)Nc2ccncc2C(=O)Nc2nc(-c3ccccc3)cs2)cc1 | < 1 |
| COc1ccc(Nc2ncc(C(=O)Nc3cccc(Cl)c3)c3ccccc23)cc1 | 67.1 |
| O=C(NCCCn1ccnc1)c1ccc(-c2ncc3cnc(-c4cccc(F)c4)cn23)cc1 | < 1 |
| Cc1cc(C)c(C(=O)Nc2cccc([S+](=O)([O-])Nc3ccc(Br)cc3)c2)[nH]1 | 737 |
| CC[C@H](C)[C@@H]([C@@H](CC(=O)N1CCC[C@H]1[C@H](OC)[C@@H](C)C(=O)N[C@@H](Cc1ccccc1)c1nccs1)OC)N(C)C(=O)[C@@H](NC(=O)[C@H](C(C)C)N(C)C)C(C)C | 341 |
| O=C(Nc1nc(-c2ccc(F)cc2)cs1)c1ccncc1NS(=O)(=O)c1ccc(F)cc1 | 755 |
| CC(C)CNc1ccnc(NCc2csc(-c3ccccc3)n2)n1 | > 1000 |
| C[C@@H]1CC(=O)Nc2cccc(-c3cnn(C(C)(C)C)c3)c2N1 | 56.5 |
| COc1ccc2oc(NC3=NC(c4[nH]ncc4Cl)C4=C(CCCC4=O)N3)nc2c1 (configuration not stated) | 706 |
| CCOc1ccccc1N(CC(=O)Nc1cc(OC)ccc1OC)S(=O)(=O)c1ccccc1 | 968 |
| COC(=O)c1cc2occc2n1Cc1nc(-c2ccc(C)cc2)oc1C | 40.3 |
| CC[C@H](Nc1ncnc2nc[nH]c12)c1nc2cccc(F)c2c(=O)n1-c1ccccc1 | 169 |

| Structure (SMILES) | Papp [×10⁻⁶ cm/s] |
| --- | --- |
| CC1=Nc2cc(C(=O)NCCc3ccccc3)ccc2Sc2c(C)ccc(C)c21 | 359 |
| Cc1ccc2nc(-c3cc(NC(=O)c4ccc5c(c4)OCCO5)ccc3Cl)oc2c1 | 144 |
| O=C(COc1ccccc1)NCC(c1cccs1)S(=O)(=O)c1ccc(Cl)cc1 (configuration not stated) | 592 |
| NC(=O)C1CCN(c2ncc(-c3cccc(F)c3)s2)CC1 | 896 |
| CC1Oc2cc3c(-c4c(O)cc(O)c5c(O)c6c(cc45)OC(C)C(C)C6=O)c(O)cc(O)c3c(O)c2C(=O)C1C (configuration not stated) | 8.5 |
| NC(=O)C1CCN(c2nc(-c3ccc(Oc4ccccc4)cc3)cs2)CC1 | 953 |
| O=C(c1ccccc1)N1CCC(C(=O)N2CCC(N3Cc4ccccc4C3=O)CC2)CC1 | 24.9 |
| Cc1cccc(S(=O)(=O)Nc2cnccc2C(=O)Nc2nc(-c3ccccc3)cs2)c1 | 860 |
| O=C(NCCCO)c1ccc(-c2ncc3cnc(-c4cccc(F)c4)cn23)cc1 | 32 |
| Fc1ccc(Nc2nc(-c3ccccc3)cc(-c3ccncc3)n2)cc1F | < 1 |
| N#Cc1nc(-c2cccc3ccccc23)oc1NCc1ccccc1 | 22.9 |
| COc1ccc(C(=O)Nc2ccc3c(c2)N(C2CCCC2)C(=O)c2ccccc2S3)cc1OC | 15.7 |
| COc1ccc(-c2nc3ccccc3c(=O)n2Cc2ccccc2)cc1COc1ccc(NC(C)=O)cc1 | > 1000 |
| COc1cc(Cl)c(C)cc1NS(=O)(=O)c1c(C)nc2sccn2c1=O | 787 |
| NC(=O)NCC(=O)N[C@H]1CC[C@H](Nc2nccc(-c3ccncc3)n2)C1 | < 1 |
| CC(C)n1cc(-c2ccc3c(c2)N(C)CC3)c2c(NS(=O)(=O)c3ccn(C)n3)ccnc21 | > 1000 |
| O=C(Nc1nc(-c2ccccc2)cs1)c1ccncc1NS(=O)(=O)c1ccc(C(F)(F)F)cc1 | 316 |
| Cc1cn2c(-c3cn[nH]c3)cnc2c(Nc2ccc(C(=O)N3CCNCC3)cc2F)n1 | < 1 |
| Cc1ccc(CN2CCOC[C@H]2c2ncc(-c3cccc(F)c3)[nH]2)cc1 | > 1000 |
| Cn1cc(Cl)c(C2N=C(Nc3nc4ccccc4o3)NC3=C2C(=O)CCC3)n1 (configuration not stated) | 633 |
| O=C(NC1CCCc2c1[nH]c1ccccc21)c1ccccc1 (configuration not stated) | 135 |
| CC(=O)c1c(C)[nH]c(C(=O)Nc2cccc([S+](=O)([O-])Nc3ccncc3)c2)c1C | 1.51 |
| O=C(Nc1ccc(S(=O)(=O)Nc2nccs2)cc1)c1ccnc(-c2ccccc2)c1 | < 1 |
| NC(=O)C1CCN(c2ncc(-c3cccc(N4CCCC4)c3)s2)CC1 | 95.6 |
| COc1ccccc1N1CCN(C2CCCCC2NS(=O)(=O)c2ccccc2)CC1 (configuration not stated) | > 1000 |
| Cc1nn2c(c1-c1ccccc1-c1ccccc1)N(Cc1ccc(O)cc1)CCC2 | 1.8 |
